Like-named read-outs stand apart in the source and are kept apart here.
What was measured:
Escherichia coli = assay: Disc diffusion antimicrobial susceptibility test, Escherichia coli; type: cell-based; design: key to Inhibition diameter: -: no growth of the organism
Procedure: (§1) The plates were incubated for 24 h at 37 °C.

[1] = tested on: Staphylococcus epidermidis; assay: Disc diffusion antimicrobial susceptibility test, Staphylococcus epidermidis; type: cell-based; design: key to Inhibition diameter: -: no growth of the organism
Procedure: as §1

physchem = assay: physchem
From the text: This study aims to compare the influence of amino acid structure on the physicochemical properties of NSAID salts with the isopropyl ester of amino acids.

[2] = DTG; cited from earlier work
Micrococcus Luteus = assay: Disc diffusion antimicrobial susceptibility test, Micrococcus luteus; type: cell-based; design: key to Inhibition diameter: -: no growth of the organism
[3] = pKa / pKB by potentiometric acid-base titration and formation constant log(KS); settings: calculated from pKA of acid and pKB of base
Procedure: Determination of formation constant pKs
Zabrze, Poland). For the measurement of pKA acids, 0.1 M NaOH was used. In order to
ester hydrochloride, HCl aqueous solution, was added in an amount that allowed reach-
After that, an acid-base titration was made out by adding dropwise 5 mM

[4] = Thermogravimetric analysis (thermal stability); settings: for TDTGmax, maximum decomposition temperature: DTG, air atmosphere, 10 °C min−1
Procedure: The thermal stabilities of the obtained NSAIDs isopropyl ester amino acid salts were investigated. […] The beginning of thermal degradation was evaluated based on the value of onset of the TG curve, which occurs in the first phase of the process. […]
Thermogravimetric analysis (TG)
Thermogravimetric analysis was carried out using Netzsch Proteus Thermal Analy- […]
Samples of 5–8 mg were loaded in Al2O3 […]
ment was performed in an air atmosphere (25 cm3min−1) with nitrogen flow (10 cm3min−1) […]
Differential scanning calorimetry (DSC)
Phase transformation temperatures were determined on a PerkinElmer DSC-7 (Rot-gau, Germany). The samples of 3–5 mg were loaded on the aluminum pan with a crimped lid. Measurements were carried out in a nitrogen atmosphere (20 cm3 min-1). The rate of heating/cooling was 5°C min-1. […]
tained for 30 min inside the furnace, then cooled to 0°C to condition the sample and the crucible. After that, heating was conducted to the specified temperature, followed by cool-ing. Unless otherwise stated, two complete cycles of heating and cooling were performed.
The specified maximum temperature was individual for each compound, determined from TG analysis, and it was at least 10°C lower than the onset decomposition tempera-ture. Temperatures reported from DSC data are curve peaks, the melting points being endothermic upon heating and crystallization point being exothermic upon cooling. Lead, indium, tin, and zinc were used as standards to calibrate the temperature. Indium was used for enthalpy measurement calibration. […]

[5] = solution transferred to disc 25 mg cm^−3
[6] = solution transferred to disc 50 mg cm^−3
[7] = solution transferred to disc 100 mg cm^−3
[8] = solution transferred to disc 200 mg cm^−3
[9] = solution transferred to disc 400 mg cm^−3
[10] = solution transferred to disc 600 mg cm^−3
[11] = solution transferred to disc 1000 mg cm^−3
[12] = solution transferred to disc 800 mg cm^−3

Structure (SMILES)	Inhibition diameter (Escherichia coli; [5])	Inhibition diameter (Escherichia coli; [6])	Inhibition diameter (Escherichia coli; [7])	Inhibition diameter (Escherichia coli; [8])	Inhibition diameter (Escherichia coli; [9])	Inhibition diameter (Escherichia coli; [10])	Inhibition diameter (Escherichia coli; [11])	Inhibition diameter [1, 5]	Inhibition diameter [1, 6]	Inhibition diameter [1, 7]	Inhibition diameter [1, 8]	Inhibition diameter [1, 9]	Inhibition diameter [1, 10]	Inhibition diameter [1, 12]	Inhibition diameter [1, 11]	Inhibition diameter (Micrococcus Luteus; [5])	Inhibition diameter (Micrococcus Luteus; [6])	Inhibition diameter (Micrococcus Luteus; [7])	Inhibition diameter (Micrococcus Luteus; [8])	Inhibition diameter (Micrococcus Luteus; [9])	further results
CC(C)Cc1ccc(C(C)C(=O)O)cc1.CCC(C)C(N)C(=O)OC(C)C (mixture of isomers) [[L-IleOiPr][IBU]]	-	-	-	6.3 ± 0.1 mm	6.4 ± 0.3 mm	7.1 ± 0.2 mm	7.8 ± 0.3 mm	7.5 ± 0.2 mm	9.5 ± 0.4 mm	14.4 ± 0.2 mm	15.4 ± 0.4 mm	17.0 ± 0.2 mm	17.5 ± 0.1 mm	18.0 ± 0.1 mm	19.3 ± 0.1 mm	7.2 ± 0.2 mm	7.6 ± 0.1 mm	8.6 ± 0.1 mm	9.4 ± 0.2 mm	10.7 ± 0.1 mm	Solubility in Phosphate Buffer pH = 5.4 (physchem): 1.161 ± 0.002 g dm^−3; Solubility in Phosphate Buffer pH = 5.4, as active substance (physchem): 0.631 ± 0.002 gAS dm^−3; Solubility in Phosphate Buffer pH = 7.4 (physchem): 4.038 ± 0.021 g dm^−3; Solubility in Phosphate Buffer pH = 7.4, as active substance (physchem): 2.195 ± 0.021 gAS dm^−3; TDTGmax, maximum decomposition temperature [2]: 221.9 [50] °C; Inhibition diameter (Micrococcus Luteus; [10]): 11.2 ± 0.1 mm; Inhibition diameter (Micrococcus Luteus; [12]): 11.6 ± 0.1 mm; Inhibition diameter (Micrococcus Luteus; [11]): 12.3 ± 0.2 mm; Log(KS) formation constant [3]: 5.78
CC(C)Cc1ccc(C(C)C(=O)O)cc1.CSCCC(N)C(=O)OC(C)C (mixture of isomers) [[L-MetOiPr][IBU]]	-	6.1 ± 0.1 mm	6.2 ± 0.1 mm	6.5 ± 0.2 mm	7.1 ± 0.3 mm	7.6 ± 0.2 mm	8.1 ± 0.1 mm	-	-	8.3 ± 0.1 mm	13.6 ± 0.2 mm	14.7 ± 0.2 mm	15.4 ± 0.2 mm	17.0 ± 0.2 mm	17.7 ± 0.3 mm	-	7.3 ± 0.2 mm	8.5 ± 0.2 mm	10.4 ± 0.1 mm	12.6 ± 0.1 mm	Solubility in Phosphate Buffer pH = 5.4 (physchem): 0.932 ± 0.011 g dm^−3; Solubility in Phosphate Buffer pH = 5.4, as active substance (physchem): 0.483 ± 0.011 gAS dm^−3; Solubility in Phosphate Buffer pH = 7.4 (physchem): 3.376 ± 0.001 g dm^−3; Solubility in Phosphate Buffer pH = 7.4, as active substance (physchem): 1.752 ± 0.001 gAS dm^−3; TDTGmax, maximum decomposition temperature [2]: 209.9 [50] °C; Inhibition diameter (Micrococcus Luteus; [10]): 14.1 ± 0.1 mm; Inhibition diameter (Micrococcus Luteus; [12]): 14.3 ± 0.1 mm; Inhibition diameter (Micrococcus Luteus; [11]): 14.6 ± 0.3 mm; Log(KS) formation constant [3]: 5.53
CC[C@H](C)[C@H](N)C(=O)OC(C)C.COc1ccc2cc([C@H](C)C(=O)O)ccc2c1 [[L-IleOiPr][NAP], L-isoleucine isopropyl ester naproxenate]	-	-	-	-	-	-	-	-	-	-	-	-	12.0 ± 0.3 mm	12.4 ± 0.2 mm	13.5 ± 0.3 mm	6.4 ± 0.1 mm	6.7 ± 0.1 mm	7.0 ± 0.1 mm	7.3 ± 0.1 mm	7.5 ± 0.2 mm	Inhibition diameter (Micrococcus Luteus; [10]): 8.1 ± 0.6 mm; Inhibition diameter (Micrococcus Luteus; [12]): 8.7 ± 0.1 mm; Inhibition diameter (Micrococcus Luteus; [11]): 9.5 ± 0.1 mm; Log(KS) formation constant [3]: 6.11; TTGonset, the onset of the thermal degradation [4]: 127.0 °C; TDTGmax, maximum decomposition temperature [4]: 287.4 °C
CC(C)Cc1ccc(C(C)C(=O)O)cc1.CC(C)OC(=O)[C@@H](N)[C@@H](C)O [[L-ThrOiPr][IBU], L-threonine isopropyl ester ibuprofenate]	-	-	-	-	-	-	-	7.5 ± 0.2 mm	10.5 ± 0.2 mm	15.4 ± 0.1 mm	16.9 ± 0.2 mm	17.5 ± 0.2 mm	18.3 ± 0.2 mm	19.8 ± 1.4 mm	23.2 ± 0.1 mm	7.3 ± 0.2 mm	10.4 ± 0.2 mm	15.5 ± 0.2 mm	16.3 ± 0.1 mm	17.0 ± 0.2 mm	TDTGmax, maximum decomposition temperature [2]: 209.9 [50] °C; Inhibition diameter (Micrococcus Luteus; [10]): 17.5 ± 0.1 mm; Inhibition diameter (Micrococcus Luteus; [12]): 18.2 ± 0.2 mm; Inhibition diameter (Micrococcus Luteus; [11]): 19.3 ± 0.2 mm; Log(KS) formation constant [3]: 6.47
CC(C)OC(=O)[C@@H](N)[C@@H](C)O.COc1ccc2cc([C@H](C)C(=O)O)ccc2c1 [[L-ThrOiPr][NAP], L-threonine isopropyl ester naproxenate]	-	-	-	-	-	-	-	-	-	-	-	-	-	-	-	6.2 ± 0.1 mm	6.6 ± 0.1 mm	6.9 ± 0.1 mm	7.6 ± 0.1 mm	8.5 ± 0.1 mm	inhibition zone (in words) ([1]; S. epidermidis, tested concentrations): no inhibition zone was observed; Inhibition diameter (Micrococcus Luteus; [10]): 8.8 ± 0.2 mm; Inhibition diameter (Micrococcus Luteus; [12]): 9.6 ± 0.1 mm; Inhibition diameter (Micrococcus Luteus; [11]): 10.8 ± 0.5 mm; TTGonset, the onset of the thermal degradation [4]: 145.8 °C; TDTGmax, maximum decomposition temperature [4]: 295.3 °C
CC(C)OC(=O)[C@@H](N)C(C)C.COc1ccc2cc([C@H](C)C(=O)O)ccc2c1 [[L-ValOiPr][NAP]]	-	-	-	-	-	-	-	-	-	-	-	-	-	6.6 ± 0.3 mm	7.4 ± 0.1 mm	6.2 ± 0.1 mm	6.3 ± 0.1 mm	6.4 ± 0.1 mm	7.2 ± 0.1 mm	7.3 ± 0.1 mm	TDTGmax, maximum decomposition temperature [2]: 275.8 [48] °C; Inhibition diameter (Micrococcus Luteus; [10]): 7.4 ± 0.2 mm; Inhibition diameter (Micrococcus Luteus; [12]): 8.2 ± 0.2 mm; Inhibition diameter (Micrococcus Luteus; [11]): 8.6 ± 0.2 mm; Log(KS) formation constant [3]: 5.89
